How the values were obtained:
[1] = tested on: capsaicin-sensitive sensory nerve; assay: Plasma protein extravasation induced by capsaicin in the mouse bladder (Evans blue); assay type: in vivo; conditions: for reduction of capsaicin-induced increase in Evans blue dye content in the bladder: female Balb/c mice, 100 μL, about one hour before capsaicin 300 μg/kg i.v.; for intravesical concentration that inhibited extravascular leakage of plasma proteins (depressant action on capsaicin-sensitive sensory nerve): mouse bladder, infused intravesically
Procedure: In the experiment, four or five female Balb/c mice (Japan SLC, Inc.) per group were used. A catheter was inserted into the bladder of a mouse anesthetized with urethane (intraperitoneally administered with 0.15 ml of a 20% solution per mouse) via the urethra, and after emptying the bladder, a physiological saline or drug solution was injected. This catheter was prepared by blunting the tip of a 24-guage hypodermic needle and making a side hole at 2 mm from the newly prepared tip. About one hour after the instillation into the bladder, extravascular leakage of plasma proteins due to inflammatory reaction caused by stimulation of the capsaicin-sensitive sensory nerve according to the method of Maggi, et al. (Nauny-Schmiedeberg's Arch. Pharmacol., 336: pp.546-555(1987)). That is Evans blue (30 mg/kg) a dye bound by plasma proteins and capsaicin (300 μg/kg) were administered to the mouse from the tail vein, and precisely five minutes after the administration, the mouse was killed by cervical dislocation, then the bladder was removed. After removing urine and blood remaining in the tissue, the dye in the organs was quantitatively determined. Evans blue dye was extracted from the bladder by placing the tissue in 150 μL of formamide overnight, and was quantitatively determined by measuring light absorbance at a wavelength of 620 nm of 100 μL supernatant in a 96-well microplate. In addition, the content of Evans blue dye in one milligram of wet tissue was calculated. Moreover, the mouse intravesically instilled with physiological saline and intravenously administered with a capsaicin-free Evans blue solution served as a normal control. […] Capsaicin and formamide were purchased from Wako Pure Chemical Industries, Ltd., and Evans blue was purchased from Aldrich. […] Results were shown as [(mean values)±(standard errors of the mean)]. The Student's t-test was used to determine the significance of difference between the group of mice receiving […] saline and stimulated with capsaicin e and the group of normal control mice.

[2] = tested on: rhythmic bladder contraction; conditions: as disclosed in International Patent Publication No. 96/20194; cited from earlier work

## O=C(O[C@H]1CN2CCC1CC2)N1CCc2ccccc2[C@@H]1c1ccccc1 [Compound 1, (+)-(1S,3′R)-quinuclidin-3′-yl 1-phenyl-1,2,3,4-tetrahydroisoquinoline-2-carboxylate]
[1]; injected intravesically at 1 μM
  reduction of capsaicin-induced increase in Evans blue dye content in the bladder: 52%
[1]; injected intravesically at 10 μM
  reduction of capsaicin-induced increase in Evans blue dye content in the bladder: 76%
[1]; injected intravesically at 100 μM
  reduction of capsaicin-induced increase in Evans blue dye content in the bladder: 80%
[1]
  intravesical concentration that inhibited extravascular leakage of plasma proteins (depressant action on capsaicin-sensitive sensory nerve): ≥ 1 µM

## O=C(OC1CN2CCC1CC2)N1CCc2ccccc2C1c1ccccc1 (stereo not drawn) [Compound A, quinuclidin-3′-yl 1-phenyl-1,2,3,4-tetrahydroisoquinoline-2-carboxylate]
[1]
  intravesical concentration that inhibited extravascular leakage of plasma proteins (depressant action on capsaicin-sensitive sensory nerve): ≥ 1 µM
[2]
  effect on rat rhythmic bladder contraction: inhibitory effects on rat rhythmic bladder contraction

From patent US7335668B2, “Pharmaceutical composition for therapy of interstitial cystitis” (priority 2001, dated 2008)
